Experimental data: publication PMC2754199 (Journal of biomolecular screening, 2008)
Peptide text beside a SMILES is read from it. * marks the point of attachment. Cbz = O=C(OCc1ccccc1)*

Tested on: calpain
Assay: cell-based luminescent calpain activity assay

## CC(C)[C@H](NC(=O)OCc1ccccc1)C(=O)N[C@H](C=O)Cc1ccccc1 [MDL-28170] (Cbz-Val-Phe-aldehyde)
  EC50: 14 ± 1.4 µM
